# PubChem BioAssay (NCI)
# Several values for one entry are separate records, joined by “and”; a condition that tells them apart may be missing. Equal entries are not always repeated.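 Five compound concentrations were applied to cells in 96-well plates for 48 hours; endpoints were derived by simple linear interpolation of the resulting dose-response curve. Abbreviation: GI50, concentration required for 50% inhibition of growth. TGI: total growth inhibition.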
# Experiments:
# Test in all cases: NCI-60 cell line screen, 48 h
# [1] = test system: CCRF-CEM leukemia
# [2] = test system: SNB-19 CNS
# [3] = test system: MDA-MB-231 breast
# [4] = test system: NCI-H23 lung
# [5] = test system: HOP-62 NSCLC
# [6] = test system: MCF7 breast
# [7] = test system: TK-10 renal
# [8] = test system: OVCAR-3 ovarian
# [9] = test system: PC-3 prostate
# [10] = test system: KM12 colon
Structure (SMILES),GI50 [1],TGI [1],GI50 [2],TGI [2],GI50 [3],TGI [3],GI50 [4],TGI [4],GI50 [5],TGI [5],GI50 [6],TGI [6],GI50 [7] [µM],TGI [7],GI50 [8],TGI [8],GI50 [9],TGI [9],GI50 [10],TGI [10]
C=CC(=O)N1CCC(C2CCNc3c(C(N)=O)c(-c4ccc(Oc5ccccc5)cc4)nn32)CC1 (centres undefined),24.8 µM,> 100 µM,14.4 µM,> 100 µM,19.2 µM,92.5 µM,16.5 µM,39.9 µM,19.5 µM,67.7 µM,12.3 µM,59.4 µM,1.29,11.6 µM,12.2 µM,56.2 µM,22 µM,69.6 µM,22.9 µM,67 µM
O=C(c1ccc(F)c(F)c1Nc1ccc(I)cc1F)N1CC(O)([C@@H]2CCCCN2)C1,10.2 µM and > 10 µM,26.7 µM and > 10 µM,1.59 µM and 0.56 µM,21.1 µM and > 10 µM,< 0.0254 µM and 0.0955 µM,4.18 µM and > 9.06 µM,< 0.0436 µM and 0.129 µM,10 µM and > 10 µM,0.349 µM and 0.067 µM,16.9 µM and > 10 µM,6.56 µM and > 10 µM,20.1 µM and > 10 µM,0.271,14.8 µM and > 10 µM,9.85 µM and > 10 µM,22.8 µM and > 10 µM,5.57 µM and > 9.27 µM,18.8 µM and > 10 µM,< 0.0376 µM and 0.28 µM,13.2 µM and > 10 µM
CS(=O)(=O)CCCn1c(=O)c(Oc2ccc(F)cc2F)cc2cnc(NC3CCOCC3)nc21,> 25 µM,> 25 µM,> 25 µM,> 25 µM,> 25 µM,> 25 µM,> 25 µM,> 25 µM,> 25 µM,> 25 µM,> 25 µM,> 25 µM,> 25,> 25 µM,> 25 µM,> 25 µM,> 25 µM,> 25 µM,> 25 µM,> 25 µM
Cc1ccc(Cl)cc1Nc1nc(C(F)(F)F)ccc1C(=O)N1CCN(c2cccc(Cl)c2)CC1,> 100 µM,> 100 µM,> 100 µM,> 100 µM,30.5 µM,> 100 µM,> 100 µM,> 100 µM,> 100 µM,> 100 µM,47.9 µM,> 100 µM,> 100,> 100 µM,8.27 µM,> 100 µM,21.7 µM,> 100 µM,> 100 µM,> 100 µM
CCN(CC)CCOc1ccc(/C=C2\CC3C4CC=C5C[C@@H](O)CC[C@]5(C)C4CC[C@]3(C)C2=O)cc1OC (some centres undefined),–,> 22 µM,4.67 µM,> 64 µM,2.31 µM,7.38 µM,7.71 µM,> 60.6 µM,3.94 µM,10.9 µM,9.6 µM,54.5 µM,9.94,21.5 µM,1.71 µM,9.04 µM,3.48 µM,> 39.1 µM,3.34 µM,13.8 µM
O=C(c1ccc(Cl)cc1)c1cnc(Nc2ccccc2Cl)s1,–,> 100 µM,–,51.3 µM,–,> 100 µM,–,53.7 µM,–,54 µM,–,86.7 µM,–,34.9 µM,–,40.9 µM,–,55.5 µM,–,> 78.3 µM
O=C(CC(O)(C(F)(F)F)C(F)(F)F)c1cc(CC(=O)C(O)(C(F)(F)F)C(F)(F)F)cc(CC(=O)C(O)(C(F)(F)F)C(F)(F)F)c1,–,> 10 µM,–,> 10 µM,–,3.3 µM,–,4.06 µM,–,3.29 µM,–,9.82 µM,–,8.36 µM,–,3.52 µM,–,3.95 µM,–,2.96 µM
CCOc1ccc2nc(S/C(=C/C=C(C#N)C#N)c3ccc(C)cc3)sc2c1,2.05 µM,5.52 µM,> 100 µM,> 100 µM,17.8 µM,43.4 µM,35.6 µM,97.3 µM,44.9 µM,> 100 µM,17.8 µM,79.6 µM,27.2,94.6 µM,32.6 µM,> 100 µM,33.9 µM,> 100 µM,35.9 µM,> 100 µM
Cc1ccc(/C=C/c2c(C(=O)/C=C/c3ccc(C(F)(F)F)cc3)c(C)nc3ccccc23)cc1,0.411 µM,> 100 µM,1.55 µM,2.88 µM,1.65 µM,3.43 µM,1.29 µM,3.13 µM,1.88 µM,3.73 µM,0.557 µM,2.3 µM,2.36,3.9 µM,1.55 µM,3.82 µM,1.64 µM,3.68 µM,2.06 µM,5.03 µM
Nc1c(C(=O)Nc2cccc(Br)c2)sc2nc3c(cc12)C(=O)CCC3,0.393 µM,> 100 µM,7.34 µM,> 100 µM,1.68 µM,61.1 µM,0.583 µM,> 100 µM,1.41 µM,> 100 µM,0.373 µM,> 100 µM,13.9,> 100 µM,0.359 µM,> 46.5 µM,0.457 µM,> 100 µM,0.349 µM,> 100 µM
CCCCCCNC(=O)c1nc(-c2ccccc2)oc1Cc1ccc(OP(=O)(O)O)cc1,24 µM,67 µM,22 µM,> 100 µM,17.2 µM,36.6 µM,16.7 µM,35.4 µM,17.4 µM,32.3 µM,15.3 µM,29.9 µM,16.9,32.9 µM,17.1 µM,31.4 µM,17.9 µM,34.5 µM,17.5 µM,33.2 µM
NS(=O)(=O)c1ccc(N(/C=C/C(=O)C(F)(F)F)CC(=O)c2ccc(Cl)cc2)cc1,20.4 µM,44.5 µM,51.2 µM,> 100 µM,36.3 µM,> 100 µM,37.5 µM,> 100 µM,33 µM,> 100 µM,15.8 µM,49.7 µM,29.7,87.8 µM,31.8 µM,> 100 µM,26.4 µM,84.1 µM,24.2 µM,73.7 µM
Cn1cc(C2=C(c3cn(C)c4cc(C(N)=O)ccc34)C(=O)NC2=O)c2ccccc21,0.951 µM,> 25 µM,2.15 µM,> 25 µM,2.88 µM,19.9 µM,1.35 µM,> 25 µM,1.67 µM,> 25 µM,0.949 µM,> 25 µM,3.76,> 21 µM,0.608 µM,1.57 µM,0.909 µM,> 25 µM,1.02 µM,6.17 µM
